Data on 34 compounds can be found in a melting point compilation (Tetko et al.; mined from patent text by program, amines drawn as free bases though some values may be those of a salt).

Regarding `CCOC(C)OCC(C)C1CCC2C3CC=C4CC(O)CC(O)C4(C)C3CCC12C` (centres undefined), the melting point is 124 to 126 °C.
Then `Cc1ccc(-c2ccc3c(c2)C=C(C(=O)Nc2ccc(CSCc4ccccc4)cc2)CCO3)cc1`, with 145 to 146 °C; and `Cc1cccc(C2(Cn3cncn3)OCCO2)c1`, with 105 °C; and `COC(=O)Cc1c(C(=O)OC)ccn1CCI`, with 137 to 138 °C.
Then `O=C1CC(c2ccccc2)NC(=O)C1C(=O)c1ccccc1[N+](=O)[O-]` (centres undefined), with 146 to 150 °C; and `Cc1csc2ncc(C(O)CCc3ccc(Br)cc3)n12` (centres undefined), with 175 to 178 °C.
Then `c1ccc2c(c1)nc1snc(-c3cnccn3)n12`, with 255 to 256 °C; and `COC(=O)c1c(Cl)cc(Cl)cc1NC(=O)CSc1ccc(NC(=S)Nc2cccc(Cl)c2)cc1`, with 148 to 150 °C; and `COCc1cc(C(O)CNCCCCCOCCc2ccc(F)cc2)ccc1O` (centres undefined), with 86 to 87 °C.
Consider `O=C(C=Cc1ccc(C(F)(F)F)cc1)N1CCC(O)CC1`, for which the melting point was in the range of 124 to 135 °C.
As for `COC(=O)C1=C(C)N=C(OC)N(C(=O)NCCCC(=O)OC(C)(C)C)C1c1ccc(F)cc1` (centres undefined), the figure is 135 to 138 °C; as for `CC1(C)C2CCC3(C)C(C2)C(=O)CCC13O` (centres undefined), 120 to 123 °C; as for `Cn1cc(OS(C)(=O)=O)c(=O)c2ccc(S(C)(=O)=O)cc21`, 258 to 260 °C.
The compound `COC1(OC)CN(c2nc3c(cc2F)C=C(C(=O)O)CN3c2ccc(F)cc2F)CC1C` (centres undefined) gave a melting point of 179 to 182 °C.
For the compound `CCCN(Cc1ccc(-c2ccccc2C(=O)C(=O)O)cc1)c1ncccc1C(=O)O`, the melting point fell in the range of 179 to 180 °C.
In the case of `CCOC(=O)C1=C(C)NC(CO)=C(C(=O)OCC)C1c1ccccc1OC` (centres undefined), the melting point was 125 to 126 °C.
As for `O=C(O)c1ccc2cc(-c3ccc(OCC(O)CO)c(C45CC6CC(CC(C6)C4)C5)c3)ccc2c1` (centres undefined), the figure is 278 °C; as for `CCC(O)(c1ccc(OCCCN2CCC(C)CC2)cc1)c1ccccc1OC` (centres undefined), 82 to 83 °C; as for `CC(C)(CO)c1ccc(C(=O)Nc2cn3cc(-c4ccoc4)ccc3n2)cc1`, 246 to 248 °C.
Compound `c1ccc2c(c1)Cn1ccnc1CN2` gave a melting point of 164 to 170 °C.
On to `NS(=O)(=O)c1ccc(-n2nc(C(F)(F)F)cc2-c2ccc(-c3cscn3)c(C(F)(F)F)c2)cc1F`, for which the melting point was in the range of 140 to 142 °C.
Then `COC(=O)c1ccc(CN([C@@H](CO)c2ccccc2)S(=O)(=O)c2ccc(Cl)cc2)cc1`, with 104 to 106 °C; and `Cc1cc(C)c(-c2cn(C)c3nc(N(C)C)n(C)c(=O)c23)c(C)c1`, with 127 to 128 °C.
As for `CC(CCCCCOCCc1ccccc1)NCC(O)c1ccc(O)c2[nH]c(=O)ccc12` (centres undefined), the figure is 134 to 138 °C; as for `CC1=CC2(C=CC1(C)C(Cl)(Cl)Cl)SCC(C(C)(C)C)CS2` (centres undefined), 141 to 143 °C; as for `COC(=O)C1=C(SCc2ccc(OC)cc2)C2=C(CC=CC=C2)CC1`, 79 to 81 °C.
Then `CCCc1c(CC)sc2[nH]c(=O)c(=O)[nH]c12`, with 295 to 298 °C; and `O=Cc1cccn1C(=O)c1ccccc1[N+](=O)[O-]`, with 95 to 99 °C; and `C=CCOc1ccc(C[C@H](NC(=O)OC(C)(C)C)C(=O)N[C@H](C(=O)N[C@@H](CC=C)C(=O)OC)C(C)C)cc1`, with 106 to 108 °C.
On to `CC(Oc1cc(-c2nn(C)c(OC(F)F)c2Cl)c(Cl)cc1Cl)C(=O)N(C)C` (centres undefined), for which the melting point is 149 °C.
As for `O=C(Nc1ccccc1)OCCCCCCCCCCC=C(F)F`, the figure is 54 to 56 °C; as for `CCCc1ccc2nc(F)c(S(N)(=O)=O)n2n1`, 148 °C; as for `COc1cc(-c2nc(C)no2)cc2oc(=O)c(C)c(C)c12`, 172 to 174 °C.
Then `CN(C)C(=O)c1nc(-c2cccnc2)nc2c1[nH]c(=O)n2-c1ccccc1`, with 250 to 252 °C.

In general, melting point refers to the temperature of the solid-liquid transition.
